Results taken from patent publication US11667601B2, “Calcium BOPTA complex” (BRACCO IMAGING S.P.A., priority 2019, dated 2023).

Assay: Solubility in water of the isolated solid form
Assay type: physicochemical
Conditions: solid form obtained by the ethanol precipitation process

(4RS)-[4-carboxy-5,8,11-tris(carboxymethyl)-1-phenyl-2-oxa-5,8,11-triazatridecan-13-oato(5-)] calciate(3-) trisodium [Ca-BOPTA trisodium salt]
solubility of the solid form: soluble in water
